Assay results published in patent US7872014B2, “Anaplastic lymphoma kinase modulators and methods of use” (Exelixis, Inc., priority 2003, dated 2011).
Structures can show the parent of a compound that is named as a salt.

molecular target: T1, ALK (baculovirus expressed human ALK kinase domain F1098-K1410) (Homo sapiens, UniProt Q9UM73); test: Luciferase-Coupled Chemiluminescent Kinase assay (LCCA), ALK biochemical activity; conditions: inhibition of ALK; mean values; 1 μM ATP, 4 μM poly-AEKY, 12 nM ALK, 2 hours ambient temperature
T1 construct: baculovirus expressed human ALK kinase domain F1098-K1410; made in house
T1 sequence (Q9UM73 1098-1410): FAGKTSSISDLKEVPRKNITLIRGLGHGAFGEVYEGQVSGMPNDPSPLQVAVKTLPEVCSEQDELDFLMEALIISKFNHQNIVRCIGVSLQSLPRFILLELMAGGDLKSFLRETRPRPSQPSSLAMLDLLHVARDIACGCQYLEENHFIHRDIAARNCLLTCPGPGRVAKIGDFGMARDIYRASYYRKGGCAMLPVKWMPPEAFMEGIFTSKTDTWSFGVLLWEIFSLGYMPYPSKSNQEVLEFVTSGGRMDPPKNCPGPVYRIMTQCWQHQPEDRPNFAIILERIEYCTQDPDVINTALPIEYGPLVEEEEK
Experimental: ALK biochemical activity was assessed using a Luciferase-Coupled Chemiluminescent Kinase assay (LCCA) format in which kinase activity was measured as the percent ATP remaining following the kinase reaction. ATP remaining after the kinase reaction was detected by luciferase-luciferin-coupled chemiluminescence.
The reaction was initiated by mixing test compounds, 1 μM ATP, 4 μM poly-AEKY and 12 nM ALK (baculovirus expressed human ALK kinase domain F1098-K1410) in a 20 μL assay buffer ([…] pH 7.5, 10 mM MgCl2, 0.02% Triton X-100, 100 mM DTT, 2 mM MnCl2). The mixture was incubated at ambient temperature for 2 hours after which 20 μL luciferase-luciferin mix was added and the chemiluminescent signal read using a Wallac Victor^2 reader. The luciferase-luciferin mix consists of 50 mM HEPES, pH 7.8, 8.5 μg/mL oxalic acid (pH 7.8), 5 (or 50) mM DTT, 0.4% Triton X-100, 0.25 mg/mL coenzyme A, 63 μM AMP, 28 μg/mL luciferin and 40,000 units of light/mL luciferase.
Consumption of ATP by ALK can thus be quantified and utilized as a measure of inhibition of ALK activity by compounds described herein. By employing serial dilutions of compounds to be tested, the ability of test compounds to inhibit ALK activity can be determined.

| SMILES | IC50 |
| --- | --- |
| COc1cc2c(-c3ccc(O)cc3)nc3[nH]nc(Cc4cccc(C)c4)c3c2cc1OC [Example 14, hydrochloride] | 100 to 999 nM |
| COc1cc2c(-c3ccc(O)cc3)nc3[nH]nc(C)c3c2cc1OC [Example 15, trifluoroacetate] | ≤ 99 nM |
| COc1cc2c(c(-c3ccc(O)cc3)nc3[nH]nc(Cc4ccccc4)c32)c(OC)c1OC [Example 24, 4-[6,7,8-tris(methyloxy)-1-(phenylmethyl)-3H-pyrazolo[3,4-c]isoquinolin-5-yl]phenol] | ≤ 99 nM |
| COc1cc2c(c(-c3ccc(O)cc3)nc3[nH]nc(C)c32)c(OC)c1OC [Example 25, 4-[1-methyl-6,7,8-tris(methyloxy)-3H-pyrazolo[3,4-c]isoquinolin-5-yl]phenol] | ≤ 99 nM |
| COc1ccc2c(-c3ccc(O)cc3)nc3[nH]nc(Cc4ccccc4)c3c2c1 [Example 26, 4-[8-(methyloxy)-1-(phenylmethyl)-3H-pyrazolo[3,4-c]isoquinolin-5-yl]phenol] | 100 to 999 nM |
| COc1cc2c(-c3ccc(O)cc3)nc3[nH]nc(C(F)(F)F)c3c2cc1OC [Example 27, 4-[7,8-bis(methyloxy)-1-(trifluoromethyl)-3H-pyrazolo[3,4-c]isoquinolin-5-yl]phenol] | 100 to 999 nM |
| COc1cc2c(-c3ccc(O)cc3)nc3[nH]nc(C(C)C)c3c2cc1OC [Example 28, 4-[1-(1-methylethyl)-7,8-bis(methyloxy)-3H-pyrazolo[3,4-c]isoquinolin-5-yl]phenol] | 100 to 999 nM |
| COc1cc2c(-c3ccc(O)cc3)nc3[nH]ncc3c2cc1OC [Example 29, 4-[7,8-bis(methyloxy)-3H-pyrazolo[3,4-c]isoquinolin-5-yl]phenol] | 100 to 999 nM |
| COc1cc(OC)c2c(-c3ccc(O)cc3)nc3[nH]nc(C)c3c2c1 [Example 31, 4-[1-methyl-6,8-bis(methyloxy)-3H-pyrazolo[3,4-c]isoquinolin-5-yl]phenol] | ≤ 99 nM |
| COc1cc(OC)c2c(-c3ccc(O)cc3)nc3[nH]ncc3c2c1 [Example 32, 4-[6,8-bis(methyloxy)-3H-pyrazolo[3,4-c]isoquinolin-5-yl]phenol] | 100 to 999 nM |
| COc1cc2c(c(-c3ccc(O)cc3)nc3[nH]ncc32)c(OC)c1OC [Example 34, 4-[6,7,8-tris(methyloxy)-3H-pyrazolo[3,4-c]isoquinolin-5-yl]phenol] | ≤ 99 nM |
| COc1cc2c(-c3ccc(O)cc3)nc3[nH]nc(C)c3c2c(OC)c1OC [Example 35, 4-[1-methyl-7,8,9-tris(methyloxy)-3H-pyrazolo[3,4-c]isoquinolin-5-yl]phenol] | ≤ 99 nM |
| COc1ccc2c(-c3ccc(O)cc3)nc3[nH]nc(C)c3c2c1 [Example 36, 4-[1-methyl-8-(methyloxy)-3H-pyrazolo[3,4-c]isoquinolin-5-yl]phenol] | ≤ 99 nM |
| COc1cc2c(-c3ccc(O)c(C)c3)nc3[nH]nc(C)c3c2cc1OC [Example 37, 2-methyl-4-[1-methyl-7,8-bis(methyloxy)-3H-pyrazolo[3,4-c]isoquinolin-5-yl]phenol] | ≤ 99 nM |
| COc1cc(-c2nc3[nH]nc(C)c3c3cc(OC)c(OC)cc23)ccc1O [Example 38, 4-[1-methyl-7,8-bis(methyloxy)-3H-pyrazolo[3,4-c]isoquinolin-5-yl]-2-(methyloxy)phenol] | 100 to 999 nM |
| COc1cc2c(cc1OCCN1CCOCC1)c(-c1ccc(O)cc1)nc1[nH]nc(C)c12 [Example 39, 4-{1-methyl-8-(methyloxy)-7-[(2-morpholin-4-ylethyl)oxy]-3H-pyrazolo[3,4-c]isoquinolin-5-yl}phenol] | 100 to 999 nM |

| SMILES | IC50 |
| --- | --- |
| CCOc1cc(-c2nc3[nH]nc(C)c3c3cc(OC)c(OC)cc23)ccc1O [Example 40, 2-(ethyloxy)-4-[1-methyl-7,8-bis(methyloxy)-3H-pyrazolo[3,4-c]isoquinolin-5-yl]phenol] | 100 to 999 nM |
| COc1cc2c(-c3ccc(O)c(Cl)c3)nc3[nH]nc(C)c3c2cc1OC [Example 41, 2-chloro-4-[1-methyl-7,8-bis(methyloxy)-3H-pyrazolo[3,4-c]isoquinolin-5-yl]phenol] | ≤ 99 nM |
| COc1cc2c(-c3ccc(O)c(F)c3)nc3[nH]nc(C)c3c2cc1OC [Example 42, 2-fluoro-4-[1-methyl-7,8-bis(methyloxy)-3H-pyrazolo[3,4-c]isoquinolin-5-yl]phenol] | 100 to 999 nM |
| COc1cc2c(-c3ccc(O)c(Br)c3)nc3[nH]nc(C)c3c2cc1OC [Example 44, 2-bromo-4-[1-methyl-7,8-bis(methyloxy)-3H-pyrazolo[3,4-c]isoquinolin-5-yl]phenol] | ≤ 99 nM |
| COc1cc2c(-c3ccc(O)cc3)nc3[nH]nc(CN4CCCC4=O)c3c2cc1OC [Example 45, 1-{[5-(4-hydroxyphenyl)-7,8-bis(methyloxy)-3H-pyrazolo[3,4-c]isoquinolin-1-yl]methyl}pyrrolidin-2-one] | 100 to 999 nM |
| COc1cc2c(-c3ccc(O)cc3)nc3[nH]nc(C)c3c2cc1OCC1CCNCC1 [Example 54, 4-{1-methyl-7-(methyloxy)-8-[(piperidin-4-ylmethyl)oxy]-3H-pyrazolo[3,4-c]isoquinolin-5-yl}phenol] | ≤ 99 nM |
| COc1cc2c(cc1OCC1CCNCC1)c(-c1ccc(O)cc1)nc1[nH]nc(C)c12 [Example 55, 4-{1-methyl-8-(methyloxy)-7-[(piperidin-4-ylmethyl)oxy]-3H-pyrazolo[3,4-c]isoquinolin-5-yl}phenol] | 100 to 999 nM |
| CCOc1cc2c(cc1OC)c(-c1ccc(O)cc1)nc1[nH]nc(C)c12 [Example 58, 4-[8-(ethyloxy)-1-methyl-7-(methyloxy)-3H-pyrazolo[3,4-c]isoquinolin-5-yl]phenol] | 100 to 999 nM |
| COc1ccc2c(-c3ccc(O)cc3)nc3[nH]nc(C)c3c2c1OC [Example 59, 4-[1-methyl-8,9-bis(methyloxy)-3H-pyrazolo[3,4-c]isoquinolin-5-yl]phenol] | ≤ 99 nM |
| CCOc1cc2c(-c3ccc(O)cc3)nc3[nH]nc(C)c3c2cc1OC [Example 60, 4-[7-(ethyloxy)-1-methyl-8-(methyloxy)-3H-pyrazolo[3,4-c]isoquinolin-5-yl]phenol] | 100 to 999 nM |
| COc1ccc2c(-c3ccc(O)cc3)nc3[nH]nc(C)c3c2c1OCC1CCNCC1 [Example 61, 4-{1-methyl-8-(methyloxy)-9-[(piperidin-4-ylmethyl)oxy]-3H-pyrazolo[3,4-c]isoquinolin-5-yl}phenol] | ≤ 99 nM |
| CCc1cc(-c2nc3[nH]nc(C)c3c3cc(OC)c(OC)cc23)ccc1O [Example 63, 2-ethyl-4-[1-methyl-7,8-bis(methyloxy)-3H-pyrazolo[3,4-c]isoquinolin-5-yl]phenol] | 100 to 999 nM |
| COc1ccc2c(-c3ccc(O)cc3)nc3[nH]nc(C)c3c2c1OCC1CCN(C)CC1 [Example 64, 4-(1-methyl-8-(methyloxy)-9-{[(1-methylpiperidin-4-yl)methyl]oxy}-3H-pyrazolo[3,4-c]isoquinolin-5-yl)phenol] | ≤ 99 nM |
| COc1cc2c(-c3ccc(O)cc3)nc3[nH]nc(C)c3c2cc1OCC1CCN(C)CC1 [Example 65, 4-(1-methyl-7-(methyloxy)-8-{[(1-methylpiperidin-4-yl)methyl]oxy}-3H-pyrazolo[3,4-c]isoquinolin-5-yl)phenol] | ≤ 99 nM |
| COc1cc2c(cc1C)c(-c1ccc(O)cc1)nc1[nH]nc(C)c12 [Example 66, 4-[1,7-dimethyl-8-(methyloxy)-3H-pyrazolo[3,4-c]isoquinolin-5-yl]phenol] | ≤ 99 nM |
